# Results published in PubChem BioAssay AID623935 (Southern Research Specialized Biocontainment Screening …, 2012).
# pIC50: −log10 of the molar value. The source made the active and inactive calls. How the calls were made is not given here.
# Test system: Chikungunya virus infected cells, antiviral inhibition
# Assay: Chikungunya virus antiviral inhibition, dose response, cell-based, secondary assay (AID 623935)
Compound,pIC50,IC50
CN(C(=O)Cc1cccs1)c1nc2c(s1)CCCC2,5.50,–
CCN1CCN(Cc2nc3ccc([N+](=O)[O-])cc3c(=O)n2-c2ccccc2F)CC1,–,> 100 µM (inactive)
